Results as given in ChEMBL document CHEMBL1201862, “PubChem BioAssay data set” (2004).
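Results reflect a 48-hour exposure of cells in 96-well plates to compound at five concentrations. Here, GI50 denotes the concentration required for 50% inhibition of growth.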 Active and inactive are the calls of the source. No stated cut-off is given here; in the data, active = GI50 up to about 1.1 µM and inactive = higher.

How the values were obtained:
Assay in all cases: DTP human tumour cell line panel, 48 h
K562 = test system: K562
MCF7 = test system: MCF7
MOLT-4 = test system: MOLT-4
A549 = test system: A549
OVCAR-4 = test system: OVCAR-4
MDA-MB-231 = test system: MDA-MB-231
SK-MEL-2 = test system: SK-MEL-2
SNB-19 = test system: SNB-19
U-251 = test system: U-251
NCI-H522 = test system: NCI-H522
SN12C = test system: SN12C
M14 = test system: M14
786-0 = test system: 786-0
RXF 393 = test system: RXF 393
COLO 205 = test system: COLO 205
DU-145 = test system: DU-145
HOP-92 = test system: HOP-92
EKVX = test system: EKVX
NCI-H226 = test system: NCI-H226
HOP-62 = test system: HOP-62

| Structure (SMILES) | GI50 (K562) | GI50 (MCF7) | GI50 (MOLT-4) | GI50 (A549) | GI50 (OVCAR-4) | GI50 (MDA-MB-231) | GI50 (SK-MEL-2) | GI50 (SNB-19) | GI50 (U-251) | GI50 (NCI-H522) | GI50 (SN12C) | GI50 (M14) | GI50 (786-0) | GI50 (RXF 393) | GI50 (COLO 205) | GI50 (DU-145) | GI50 (HOP-92) | GI50 (EKVX) | GI50 (NCI-H226) | GI50 (HOP-62) |
| --- | --- | --- | --- | --- | --- | --- | --- | --- | --- | --- | --- | --- | --- | --- | --- | --- | --- | --- | --- | --- |
| O=C(O)C1CCCCC1c1c2ccc(=O)cc-2oc2cc(O)ccc12 (stereo not drawn) | 14.1 µM (inactive) | 27.6 µM (inactive) | 23.8 µM (inactive) | 38.4 µM (inactive) | 23.1 µM (inactive) | 30.8 µM (inactive) | 29.4 µM (inactive) | 48.6 µM (inactive) | 30.5 µM (inactive) | 17.7 µM (inactive) | 41.7 µM (inactive) | 26.1 µM (inactive) | 32.1 µM (inactive) | 18.7 µM (inactive) | 34.1 µM (inactive) | 26.5 µM (inactive) | 12 µM (inactive) | 33.5 µM (inactive) |  |  |
| c1ccc2sc(C3(N4CCCC4)CCCCCC3)cc2c1 | 17.2 µM (inactive) | 18.4 µM (inactive) | 12.5 µM (inactive) | 19.6 µM (inactive) | 13.4 µM (inactive) | 17.1 µM (inactive) |  | 14 µM (inactive) | 17.2 µM (inactive) | 18.7 µM (inactive) | 15.3 µM (inactive) | 14.8 µM (inactive) | 14.1 µM (inactive) | 12.3 µM (inactive) | 14 µM (inactive) | 22.4 µM (inactive) | 12.6 µM (inactive) | 17.3 µM (inactive) | 21.3 µM (inactive) | 18.5 µM (inactive) |
| Oc1ccc2ccccc2c1/C=N/Cc1c(O)ccc2ccccc12 | 18.5 µM (inactive) | 48.2 µM (inactive) | 13.2 µM (inactive) | 86.7 µM (inactive) | > 100 µM (inactive) | 82.4 µM (inactive) | 71.8 µM (inactive) | 36.9 µM (inactive) | 29 µM (inactive) | 6.53 µM (inactive) | 32.8 µM (inactive) | 44.5 µM (inactive) | 47.2 µM (inactive) | 1.39 µM (inactive) | > 100 µM (inactive) | 41.4 µM (inactive) | 26.4 µM (inactive) | 7.71 µM (inactive) |  | > 100 µM (inactive) |
| C=CCn1c(=O)c(-c2ccccc2)c(O)c2ccccc21 | > 100 µM (inactive) | > 100 µM (inactive) | > 100 µM (inactive) | > 100 µM (inactive) | > 100 µM (inactive) | > 100 µM (inactive) |  | > 100 µM (inactive) | > 100 µM (inactive) | > 100 µM (inactive) | > 100 µM (inactive) |  | > 100 µM (inactive) | > 100 µM (inactive) | > 100 µM (inactive) | > 100 µM (inactive) | > 100 µM (inactive) | > 100 µM (inactive) | > 100 µM (inactive) | > 100 µM (inactive) |
| Cn1c(-c2cccs2)cc(-c2ccsc2)c1-c1ccsc1 | > 100 µM (inactive) | 6.59 µM (inactive) | > 100 µM (inactive) | > 100 µM (inactive) | > 100 µM (inactive) | > 100 µM (inactive) |  | > 100 µM (inactive) | > 100 µM (inactive) | > 100 µM (inactive) | > 100 µM (inactive) | > 100 µM (inactive) | > 100 µM (inactive) | > 100 µM (inactive) | > 100 µM (inactive) | > 100 µM (inactive) | > 100 µM (inactive) | > 100 µM (inactive) | > 100 µM (inactive) | > 100 µM (inactive) |
| COc1cc(OCCN(C)C)c2[nH]c(C(=O)N3CC(CCl)c4c3cc(N)c3ccccc43)cc2c1 (stereo not drawn) |  | < 0.01 µM (active) |  | < 0.01 µM (active) | < 0.018 µM (active) | < 0.01 µM (active) | < 0.01 µM (active) | < 0.01 µM (active) | < 0.01 µM (active) | < 0.01 µM (active) | < 0.01 µM (active) | < 0.01 µM (active) | < 0.01 µM (active) | < 0.01 µM (active) | < 0.01 µM (active) | < 0.01 µM (active) | < 0.01 µM (active) | < 0.01 µM (active) | < 0.01 µM (active) | < 0.01 µM (active) |
| COc1ccc(/N=C2\C(=O)Nc3ccc(Br)cc32)cc1 | 8.67 µM (inactive) | 14.6 µM (inactive) | 16.6 µM (inactive) | 24.2 µM (inactive) |  | 13.9 µM (inactive) |  | 33.4 µM (inactive) | 22.9 µM (inactive) | 9.38 µM (inactive) | 17.2 µM (inactive) | 17.5 µM (inactive) | 16.3 µM (inactive) | 18.2 µM (inactive) | 15.7 µM (inactive) | 32.3 µM (inactive) | 18.2 µM (inactive) | 17.2 µM (inactive) | 16.2 µM (inactive) | 29.2 µM (inactive) |
| CCOC(=O)c1c(C)noc1/N=N/N(CCO)CCO | 29 µM (inactive) | 29.1 µM (inactive) | 21 µM (inactive) | 36.8 µM (inactive) | 30.2 µM (inactive) | 38.9 µM (inactive) |  | 37.2 µM (inactive) | 28.4 µM (inactive) | 24.2 µM (inactive) | 37.5 µM (inactive) | 49.5 µM (inactive) | 38.2 µM (inactive) | 15.1 µM (inactive) | 23.1 µM (inactive) | 49.7 µM (inactive) | 24.9 µM (inactive) | 39.9 µM (inactive) | 23.6 µM (inactive) | 32.6 µM (inactive) |
